We go through four molecules from patent US20190365728A1, “PHARMACEUTICAL COMPOSITION COMPRISING BETAHISTINE” (Otolanum AG, priority 2017, published 2019).

SMILES strings stand for the structures. Marks after values point to notes of the source that are not given here.

Series [1] in a line: Minor metabolites HEP and AEP in human plasma (LC-MS/MS). It is filed as in vivo. How it is done: For the first time it was also possible to determine the two minor betahistine metabolites aminoethylpyridine (AEP) and hydroxyethylpyridine (HEP) in human plasma.
HEP and AEP concentrations were determined using liquid chromatographic tandem mass spectrometry (SCIEX API 4000) with a validated method. HEP-d4 and AEP-d4 dihydrochloride served as internal standards. […] The limit of quantitation was 1 ng/mL in case of HEP and 10 pg/mL in case of AEP.

Series [2] in a line: Single-dose and 14-day repeat-dose toxicology/toxicokinetic study of intranasal betahistine in beagle dogs. It is filed as in vivo. How it is done:
Sample analysis was conducted using reversed phase chromatography.

The conditions of series [3]: metabolite of betahistine, background statement; cited from earlier work.
Series [4] is described as follows: Pharmacokinetic profile in beagle dogs after single oral, intranasal and intravenous betahistine. It is filed as in vivo. How it is done:
In this study, the pharmacokinetic profile of betahistine was evaluated after a single dose administration of betahistine in male and female beagle dogs (age 5-7 months; weight of 5-11 kg, within a range of 3 kg for each sex) for three routes of administration: oral, intranasal, and intravenous.
On Day 1 of the study, betahistine (BH) was delivered orally at a dose of 12 mg/kg, 24 mg/kg, or 48 mg/kg. Each treatment group comprised 8 animals (4 males and 4 females). For pharmacokinetic assessment, plasma samples were collected prior to dosing, and then at 5, 10, 20 and 30 min, 1, 2, 3, 6, 24 hours after dosing.
On Day 8 of the study, the animals that received oral BH at a dose of 12 mg/kg were administered the test betahistine composition intranasally at a dose of 40 mg betahistine dihydrochloride; the animals that received oral BH at a dose of 24 mg/kg were administered the test betahistine composition intranasally at a dose of 80 mg betahistine dihydrochloride; and the animals that received oral BH at a dose of 48 mg/kg were administered the test betahistine composition intranasally at a dose of 120 mg betahistine dihydrochloride. The test betahistine composition was delivered intranasally in a single dose via an Aptar nasal spray pump device at a total dose level of 40, 80 and 120 mg of betahistine dihydrochloride. Plasma samples were collected prior to dosing, and then at 5, 10, 20 and 30 min, 1, 2, 3, 6, 24 hours after dosing.
On Day 15 of the study, the animals that received oral BH at a dose of 12 mg/kg and the test betahistine composition intranasally at a dose of 40 mg betahistine dihydrochloride were administered a bolus intravenous injection of betahistine at a dose of 0.44 mg/kg. Plasma samples were collected prior to dosing, and then at 5, 10, 20 and 30 min, 1, 2, 3, 6, 24 hours after dosing.
Betahistine 13CD3 dihydrochloride and 2-pyridylacetic acid-D4 hydrochloride were used as respective internal standards. The calibration range for betahistine was 0.05-250 ng/mL and for 2-PAA 2.00-3000 ng/mL using a plasma sample volume of 0.50 mL.
For determination of betahistine, the method involved liquid-liquid extraction, for 2-PAA, the method involved protein precipitation. Plasma samples were prepared for betahistine by extraction under basic conditions with an organic solvent, then the organic phase was dried, reconstituted and transferred for LC/MS-MS analysis. […] Sample analysis was performed using reversed phase chromatography.

The nature of a further series: clinical. Particulars: human. On the procedure: The safety and pharmacokinetic profile of intranasal betahistine with single and multiple dosing was evaluated in a single-site randomized, placebo-controlled Phase I dose-escalation trial. 72 healthy male and female subjects aged between 18 and 60 years and with a BMI of 18.5 to 30 kg/m^2 were enrolled. In one group, the subjects received single dose intranasal betahistine in four dose cohorts of 10, 20, 40 or 60 mg or multiple dose intranasal betahistine (three times daily for 3 days) in four dose cohorts of 5, 10, 20 or 40 mg (double blind). Subjects received first the single dose and then, following a wash-out period, the multiple doses with the exception of the 5 mg and 60 mg doses which were tested only under one dose regimen. For reference purposes, another group of subjects received single dose oral betahistine in four dose cohorts at 48, […], 192 or 384 mg (single blind).
With each actuation of the nasal spray, 100 μL were delivered (1 actuation at 50 mg/mL for 5 mg and at 200 mg/mL for 20 mg, respectively; 2 actuations at 50 mg/mL for 10 mg and at 200 mg/mL for 40 mg, respectively, into each nostril; 3 actuations at 200 mg/mL for 60 mg with 2 into one nostril and 1 into the other) while the subject was in an upright position.
Serial blood samples were collected at various time points, starting at pre-dose and over a maximum of 72 hours following dosing.
All plasma samples were stored at −95 to −65° C. until all samples had been collected and sent in two separate shipments for analysis.

Series [5] can be described thus: Single ascending-dose clinical trial of intranasal betahistine in healthy volunteers: safety and plasma pharmacokinetics. The note with it: human; for tmax: median (range).
Description: The safety and pharmacokinetic profile of intranasal betahistine was further evaluated in a double-blind, randomized, placebo-controlled, single ascending-dose clinical trial involving a total of 32 healthy male and female volunteers. The main inclusion criteria were that subjects had to be aged 18-45 years and show a body mass index within the range of 18-30 kg/m^2. Subjects were required to fast for 8 hours prior to study drug administration and for 2 hours post-dose.
The betahistine was supplied as a 50 and 200 mg/mL solution in a HDPE bottle and spray pump pack (Aptar Classic Line) that delivers an accurate 100 μL per actuation. The study drug was delivered into the right nostril of subjects while they were in a supine position. For the 5 and 20 mg doses, one application of 50 and 200 mg/mL, respectively, was needed, whereas for the 10 and 40 mg doses, two applications of 50 and 200 mg/mL were required.
Serial blood samples were collected through 24 hours, following dosing on Day 1, at Day 4 and Day 7 to determine concentrations of betahistine and its main metabolite, 2-PAA in plasma. Plasma samples were assayed for BH content using validated procedures and methods. Blood samples (6 mL) were collected into tubes containing K2EDTA and were centrifuged at approximately 2000 g for 10 minutes at +4° C. and the resultant plasma transferred into 2 clean, labelled 2 mL cryovials. All plasma samples were stored at −70° C. or below until all samples had been collected and sent as a single batch for analysis. Aliquot 1 and 2 were sent as separate shipments. Concentrations were determined using liquid chromatographic tandem mass spectrometry (LC-MS/MS; SCIEX API 5000 for betahistine and SCIEX API 4000 for 2-PAA) with a validated method. Betahistine-^13CD3 dihydrochloride and 2-PAA-D4 hydrochloride served as internal standards. The standard calibration range—using a plasma sample volume of 0.2 and 0.1 mL, respectively—for betahistine was 10 to 800 pg/mL and for 2-PAA it was 2 to 2000 ng/mL. The limit of quantitation was 10 pg/mL for betahistine and 2.0 ng/mL for 2-PAA.
In case of betahistine, the method involved a liquid-liquid extraction; in case of 2-PAA it involved protein precipitation. For betahistine, plasma samples were extracted under basic conditions with an organic solvent; the organic phase was dried and reconstituted in reconstitution solvent. Approximately 0.120 mL of the aqueous layer was transferred into polypropylene vials for LC-MS/MS analysis. For 2-PAA plasma samples were precipitated with a mixture of organic solvents, supernatant was diluted and 0.120 mL was transferred into polypropylene vials for LC-MS/MS analysis. Sample analysis was conducted using reversed phase chromatography.
For each subject who completed the study, plasma concentration-time data of betahistine and 2-PAA were used for the calculation of the following pharmacokinetic parameters:
Dose normalized parameters Cmax/Dose and AUC/Dose were also calculated.
Series [6] is described as follows: Relative bioavailability of intranasal vs oral betahistine in humans (Example 3 vs Barak et al.). It is filed as in vivo. The note with it: human. On the procedure:
For the calculation of the relative bioavailability of intranasal betahistine compared to peroral betahistine, the area under the concentration-time curve (AUC) determined in Example 3 was compared to the AUC determined in a study with oral betahistine in healthy volunteers described in Barak et al. (Journal of Psychopharmacology, 2016, Vol. 30(3) 237-241). In brief, in this study, forty-eight healthy women were recruited and randomized to receive per os (i.e. orally) either betahistine 144 mg/day (48 mg t.i.d.) or matching placebo for 4 weeks. Their mean weight was 60.2 kg in the active-treated group (n=24) and 59.8 kg in the placebo group (n=24). Study medication (betahistine or matching placebo) was administered at least 30 minutes prior to eating. On Day 8, blood samples of 6 mL each were collected at 8 am, and 30, 60, 150 and 300 minutes thereafter. Plasma concentrations of betahistine and its metabolite 2-PAA were determined by high-performance liquid chromatography.

In the case of `NCCc1ccccn1` [AEP, aminoethylpyridine], the plasma concentration entry in series [1] (AEP, human, intranasal betahistine 60 mg) is on record as “barely detectable”.
In the case of `OCCc1ccccn1` [HEP, hydroxyethylpyridine], in series [1] (in vivo), the median tmax came out at 15 min.
On to `O=C(O)Cc1ccccn1` [Variant 2-PAA, 2-pyridylacetic acid], for which the last measurable values in series [2] (both, beagle, dog, in vivo) is listed as 24 hours post-dose. In series [3], the pharmacological activity result is “no pharmacological activity”. Moreover, the “Tmax, median (min-max)” value in series [4] (male, beagle, dog, in vivo) is recorded as 0.13 (0.08-0.33) hr.
For `CNCCc1ccccn1` [betahistine], in series [2] (beagle dogs, intranasal, single dose 4-80 mg and 14-day repeat dose 12-240 mg/day), the tolerability entry is on record as “well tolerated”. In series [2] (both, beagle, dog, in vivo), the “body weights, clinical pathology and gross necropsy findings” value is recorded as “unremarkable”; the microscopic findings result is recorded as “No adverse treatment-related microscopic findings”. Moreover, the “decline of plasma concentration” value in series [2] (both, beagle, dog, in vivo, 1 h) is recorded as “more than 90%”. In “clinical” (both, in vivo), the apparent half-life entry is recorded as “less than 1 h”; the “exposure AUC0-6 unadjusted for dose, intranasal vs oral 48 mg” value was 5-29 fold; the “nasal pain, share of administrations” value amounted to 4%; the “post-nasal drip, share of administrations” value is listed as 5%. In “clinical” (both, in vivo), the “runny nose, share of administrations” value amounted to 6% and the “time of maximum concentrations” value was 5 to 20 min. In “clinical” (both, in vivo, 3 days), the accumulation over time entry is on record as “No accumulation”. In addition, the “time of maximum concentrations” value in “clinical” (both, in vivo, po) lay within 15 to 30 min. The molecule further yielded a tmax in the series “clinical” (both, in vivo, tmax, Median (range)) of 15 min. For the same molecule, the “dose up to which safety and tolerability could be shown” value in “clinical” (intranasal multiple dosing three times daily over three days) is on record as “up to 40 mg”. Besides, the “dose up to which safety and tolerability could be shown” value in the series “clinical” (intranasal single doses) is “up to 60 mg”. For the same molecule, the “peak concentration in plasma” value in series [5] (betahistine, single intranasal 20 mg) came to 4.1 ng/mL. Further, in series [5] (single intranasal 5 mg), the tmax was 0.208 (0.08-0.33) hr. The t1/2 in series [5] (single intranasal 10 mg, mean, n=3) is given as 0.883 ^a hr. The tmax in series [5] (single intranasal 10 mg) was 0.167 (0.08-0.17) hr. Further, the tmax in series [5] (single intranasal 40 mg) was 0.125 (0.08-0.27) hr. The “relative bioavailability of oral vs. intranasal administration” value in series [6] (Barak et al. oral vs Example 3 intranasal) is listed as “approximately 2.4%”. In addition, the “bioavailability intranasal relative to oral” value in series [6] (Example 3 single intranasal 5-40 mg vs Barak et al. oral 48 mg) is given as 20-40 times. The “Rel. Bioavail. intranasal relative to oral” value in series [6] (intranasal 40 mg vs oral 48 mg (Barak et al.)) was found to be 41.1. In addition, in series [4] (both, beagle, dog, in vivo), the salivation result is “noted in most animals” and the “sneezing, animals affected” value is reported as 2/8. Also, the tolerability result in series [4] (dogs, single intranasal 40-120 mg) is given as “well tolerated”. In series [4] (female, beagle, dog, in vivo, iv, 0.44 mg/kg), this molecule gave a Cmax of 4.37 ± 8.84 ng/mL.
